Data reported in patent publication US20220105029A1, “BIODEGRADABLE CHITOSAN MICRONEEDLE PATCH FOR TRANSDERMAL DELIVERY FOR LIVESTOCK PAIN MANAGEMENT” (THE BOARD OF TRUSTEES OF THE UNIVERSITY OF ARKANSAS, priority 2020, published 2022).

Legend:
[1] = cited from earlier work
[2] = Solubility of meloxicam in solvents; assay type: physicochemical

For `Cc1cnc(NC(=O)C2=C(O)c3ccccc3S(=O)(=O)N2C)s1` [meloxicam], which solubility in acids [1] is on record?
The solubility in acids was “not dissolving in acids”.

And the “solubility in dimethyl sulfoxide (DMSO)” value [1]?
The value was “dissolves completely”.

What about the “solubility in acetic acid” value [2] of the same compound?
The value was “not soluble”.
